Assay results published in patent US9636317B2, “Compositions and methods of use of phorbol esters” (priority 2007, dated 2017).
“And” between values parts separate entries of the source, which are not always exact repeats. Equal entries are not always repeated.

Assays:
[1] = Anti-aging properties of TPA (patient case); assay type: in vivo, human; settings: 1.25 ampoules of 0.125 mg/m^2 every other day for two months
Experimental: Patient eight, person, was being treated for prostate hypertrophy with 1.25 ampoules of 0.125 mg/m^2 every other day for two months.

[2] = Treatment of carpal tunnel syndrome (patient case); assay type: in vivo, human
Description: Patient with burning, tingling, pain and numbness in their fingers.

primary AML cells = experiment: Primary AML cultures ex vivo: cell viability, apoptosis assays and Western analysis of ERK; assay type: cell-based, human
Description: In addition to protein kinase C and ERK activation, TPA is a known inducer of NF-κB, a pro-survival transcription factor often constitutively active in AML blasts and leukemic stem cells.

[3] = Treatment of prostate hypertrophy (patient case); assay type: in vivo, human
Experimental: Patient eight, diagnosed with prostate hypertrophy. They were injected with 1 ampoule containing 0.19 mg of TPA (0.125 mg/m^2) every other day for four weeks, then 0.24 mg of TPA (1.25×0.125 mg/m^2) every other day for 2 weeks, and 0.26 mg of TPA (1.5×0.125 mg/m^2) every other day for an additional 3 weeks. Their PSA index is now below 3.0.

[4] = tested on: pancreatic cancer, non-small-cell lung cancer, nasopharyngeal carcinoma; experiment: TPA as an adjuvant to traditional neoplasm treatments (patient cases); assay type: in vivo, human
Experimental: Patient three was diagnosed with terminal metastasized pancreatic cancer. They received five injections of 0.18 mg TPA (0.125 mg/m^2) per week for 12 weeks in addition to chemotherapy.
Patient nine was diagnosed with non-small-cell lung cancer. The cancer had metastasized and was refractory to Tarceva® (erlotinib) and Iressa™ (gefitinib). The patient was treated with a combination of gemcitabine and cisplatin according to standard protocols accompanied by an injection of 0.19 mg of TPA (0.125 mg/m^2) each weekday for eight weeks. […] They have been in remission since Jun. 30, 2010.
Patient thirteen was diagnosed with terminal nasopharyngeal carcinoma and treated with both chemotherapy and radiotherapy. They received injections of 0.19 mg of TPA (0.125 mg/m^2) of TPA a day for five days prior to beginning radiotherapy and then 0.19 mg of TPA (0.125 mg/m^2) every other day for a total of 20 injections.

[5] = Third clinical study of HIV+ patients: periphery blood profile; assay type: in vivo, human; settings: one value per patient
Experimental: Each patient in the study received 150 μg of TPA in 200 ml of sterile saline by intravenous infusion over a 1.5 to 2 hour period daily for 60 days for a total administered dose of 9.0 mg. Following completion of the 60 days of TPA therapy, these patients remained under observation for an additional 60 days though the received no further treatment.
CD3, CD4 and CD8 levels in peripheral blood were quantitated prior to starting treatment, and again at 30 and 60 days using flow cytometry and the appropriate antibodies obtained from B.D. Bioscience, San Diego, Calif. Viral load was determined using conventional methods at Kuang Ann men Hospital, Beijing, China. Patients RBC, WBC, platelets and hemoglobin levels were also measured. […]

[6] = tested on: circulating white blood cells and neutrophils; settings: patients whose bone marrow function has been depressed by chemotherapy; cited from earlier work
[7] = Treatment of Parkinson's disease (patient case); assay type: in vivo, human; settings: 0.19, 0.24, 0.26 mg TPA every other day over 9 weeks
Experimental: Patient two was diagnosed with Parkinson's disease. They were injected with 1 ampoule containing 0.19 mg of TPA (0.125 mg/m^2) TPA every other day for four weeks, then 0.24 mg of TPA (1.25×0.125 mg/m^2) every other day for 2 weeks, and 0.26 mg of TPA (1.5×0.125 mg/m^2) every other day for an additional 3 weeks.

S180 cell-injected mice = experiment: Effect of TPA on peripheral WBC and Hb counts in S180 cell-injected mice; settings: for WBC counts: second day after treatment
Experimental: Sarcoma 180 (S180) cells were injected into Kwen-Ming mice. On the third day, the mice were given TPA interperitoneally (i.p.). at 50, 100 or 200 μg/kg/day for 7 days. On the second day after the treatment was completed, blood samples were taken from the tails of the treated mice for WBC and Hb analyses.

terminal breast cancer = experiment: Treatment of breast cancer (patient case); assay type: in vivo, human; settings: 35 injections, 0.18 to 0.26 mg TPA three to four times a week
Description: Patient six was diagnosed with terminal breast cancer. They were unresponsive to either radiation or chemotherapy and the cancer had metastasized into the bone leaving their wheelchair bound.

[8] = TPA 50 μg/kg/day i.p. for 7 days
[9] = TPA 100 μg/kg/day i.p. for 7 days
[10] = TPA 200 μg/kg/day i.p. for 7 days

SMILES: CCCCCCCCCCCCCC(=O)O[C@@H]1[C@@H](C)[C@@]2(O)[C@@H](C=C(CO)C[C@]3(O)C(=O)C(C)=C[C@@H]23)[C@@H]2C(C)(C)[C@]12OC(C)=O [TPA, 12-O-tetradecanoylphorbol-13-acetate]
- skin [1]: their skin became softer and had fewer wrinkles
- use of hands [2]: regained full use of their hands
- cytotoxic effect (cell viability and apoptosis assays) (primary AML cells; AML cases): direct therapeutic cytotoxic effects in at least a subset of AML cases
- phospho-ERK pro-survival signal (primary AML cells; after 24 hour ex vivo exposure): loss of the phospho-ERK pro-survival signal
- ERK phosphorylation (Western analysis) (primary AML cells; all primary cultures analyzed, by 1 hour in culture): strongly induced ERK phosphorylation
- PSA index ([3]; 0.19, 0.24, 0.26 mg TPA every other day over 9 weeks): below 3.0
- appearance ([3]; same patient): developed a more youthful appearance
- tumor in the pancreas ([4]; five injections of 0.18 mg TPA per week for 12 weeks in addition to chemotherapy, from 6.3 cm): 2.4 cm
- skin damage from radiation treatment ([4]; nasopharyngeal carcinoma patient): did not suffer any apparent skin damage
- remission ([4]; nasopharyngeal carcinoma patient, chemotherapy and radiotherapy plus 20 injections of 0.19 mg TPA): in remission for two and a half years
- side effects of chemotherapy ([4]; non-small-cell lung cancer patient, gemcitabine and cisplatin plus 0.19 mg TPA each weekday for eight weeks): did not lose any hair and had significantly less nausea
- remission ([4]; non-small-cell lung cancer patient, gemcitabine and cisplatin plus TPA): in remission since Jun. 30, 2010
- side effects of chemotherapy ([4]; pancreatic cancer patient, TPA in addition to chemotherapy): significantly less vomiting and nausea than in prior chemotherapy treatments without TPA
- PLt ([5]; Fifteen Days After TPA): 1.69e+11 L⁻¹ and 2.19e+11 L⁻¹ and 4.15e+11 L⁻¹ and 1.51e+11 L⁻¹ and 2.08e+11 L⁻¹ and 2.4e+11 L⁻¹
- RBC ([5]; Fifteen Days After TPA): 4.03e+12 L⁻¹ and 3.41e+12 L⁻¹ and 3.65e+12 L⁻¹ and 2.98e+12 L⁻¹ and 3.69e+12 L⁻¹ and 3.88e+12 L⁻¹
- Rb ([5]; Fifteen Days After TPA): 114 g/L and 101 g/L and 142 g/L and 118 g/L and 141 g/L and 140 g/L
- WBC ([5]; Fifteen Days After TPA): 4.1 ×10^9/L and 5 ×10^9/L and 8.1 ×10^9/L (2×) and 6.4 ×10^9/L and 9 ×10^9/L
- PLt ([5]; Forty Days After TPA): 3.04e+11 L⁻¹ and 1.52e+11 L⁻¹ and 2.62e+11 L⁻¹ and 2.91e+11 L⁻¹ and 1.31e+11 L⁻¹ and 1.49e+11 L⁻¹
- RBC ([5]; Forty Days After TPA): 3.9e+12 L⁻¹ and 4.44e+12 L⁻¹ and 4.13e+12 L⁻¹ and 3.86e+12 L⁻¹ and 3.49e+12 L⁻¹ and 4.14e+12 L⁻¹
- Rb ([5]; Forty Days After TPA): 125 g/L and 109 g/L and 110 g/L and 124 g/L and 116 g/L and 131 g/L
- WBC ([5]; Forty Days After TPA): 4.6 ×10^9/L (2×) and 3.9 ×10^9/L (2×) and 6.2 ×10^9/L and 4.9 ×10^9/L
- PLt ([5]; Sixty Days After TPA): 2.21e+11 L⁻¹ and 2.27e+11 L⁻¹ and 2.39e+11 L⁻¹ and 2.76e+11 L⁻¹ and 1.21e+11 L⁻¹ and 2.22e+11 L⁻¹
- RBC ([5]; Sixty Days After TPA): 4.55e+12 L⁻¹ and 4.31e+12 L⁻¹ and 4.04e+12 L⁻¹ and 4.1e+12 L⁻¹ and 3.34e+12 L⁻¹ and 4.56e+12 L⁻¹
- Rb ([5]; Sixty Days After TPA): 126 g/L and 96 g/L and 99 g/L (2×) and 123 g/L and 136 g/L
- WBC ([5]; Sixty Days After TPA): 8.8e+09 L⁻¹ and 4.4e+09 L⁻¹ and 6.2e+09 L⁻¹ and 5.1e+09 L⁻¹ and 7.7e+09 L⁻¹ and 3.5e+09 L⁻¹
- PLt ([5]; Thirty Days After Stopping TPA): 2.72e+11 L⁻¹ and 1.93e+11 L⁻¹ and 2.78e+11 L⁻¹ and 2.24e+11 L⁻¹ and 1.78e+11 L⁻¹
- RBC ([5]; Thirty Days After Stopping TPA): 4.55e+12 L⁻¹ and 4.4e+12 L⁻¹ and 3.9e+12 L⁻¹ and 4.71e+12 L⁻¹ and 3.42e+12 L⁻¹
- Rb ([5]; Thirty Days After Stopping TPA): 130 g/L and 104 g/L and 110 g/L and 144 g/L and 100 g/L
- WBC ([5]; Thirty Days After Stopping TPA): 7.5e+09 L⁻¹ and 6.5e+09 L⁻¹ and 8.4e+09 L⁻¹ and 3.8e+09 L⁻¹ and 4.8e+09 L⁻¹
- PLt ([5]; Thirty Days After TPA): 2.32e+11 L⁻¹ and 2.47e+11 L⁻¹ and 3.45e+11 L⁻¹ and 1.77e+11 L⁻¹ and 2.28e+11 L⁻¹ and 2.75e+11 L⁻¹
- RBC ([5]; Thirty Days After TPA): 4.48e+12 L⁻¹ and 3.83e+12 L⁻¹ and 4.03e+12 L⁻¹ and 3.2e+12 L⁻¹ and 4.32e+12 L⁻¹ and 4.35e+12 L⁻¹
- Rb ([5]; Thirty Days After TPA): 116 g/L and 113 g/L and 145 g/L and 121 g/L and 154 g/L and 148 g/L
- WBC ([5]; Thirty Days After TPA): 5.9e+09 L⁻¹ and 5.2e+09 L⁻¹ and 4.3e+09 L⁻¹ and 4e+09 L⁻¹ and 4.5e+09 L⁻¹ and 8.9e+09 L⁻¹
- circulating white blood cells and neutrophils [6]: increase in circulating white blood cells and neutrophils
- tremors [7]: no longer displaying tremors
- Hb (S180 cell-injected mice; [8]): 136 ± 11 g/L
- WBC counts (S180 cell-injected mice; [8]): 16.1±7.4 ×10^9/L
- Hb (S180 cell-injected mice; [9]): 149 ± 12 g/L
- WBC counts (S180 cell-injected mice; [9]): 18.7±3.0 ×10^9/L
- Hb (S180 cell-injected mice; [10]): 149 ± 10 g/L
- WBC counts (S180 cell-injected mice; [10]): 20.7±3.4 ×10^9/L
- outcome, terminal breast cancer metastasized into the bone (terminal breast cancer): in remission and able to walk normally
